From patent publication US12377101B2, “Combination therapies” (Mirati Therapeutics, Inc., priority 2018, dated 2025)
Marks after values point to notes of the source that are not given here.

Legend:
Format in all cases: in vivo, nude/nude mice
SW1573 cells = test: SW1573 tumor bearing mice, single agents and combination; settings: for tumor growth inhibition: Day 22, Compound 478 100 mg/kg or RMC-4550 30 mg/kg p.o. daily; for Average Tumor Volume: Compound 478 100 mg/kg, RMC-4550 30 mg/kg
Protocol: (§1) Immunocompromised nude/nude mice are inoculated in the right hind flank with cells or patient derived tumor samples harboring a KRas G12C mutation. When tumor volumes reach between 200-400 mm^3 in size, the mice are divided into four groups of 5-12 mice each. The first group is administered vehicle only. […] The fourth group is administered the single agent dose of the KRas G12C inhibitor in combination with the single agent dose of the SHP-2 inhibitor. […] Tumor volumes are measured using a caliper every two-three days and tumor volumes are calculated by the formula: 0.5×[…].
(§2) 20 nude/nude mice per study were inoculated in the right hind limb with 5×10^6 SW1573 cells, KYSE410 cells or H358 cells.

KYSE410 cells = test: KYSE410 tumor bearing mice, single agents and combination; settings: for tumor growth inhibition: Day 22, Compound 478 100 mg/kg or RMC-4550 30 mg/kg p.o. daily; for Average Tumor Volume: Compound 478 100 mg/kg, RMC-4550 30 mg/kg
Protocol: as §1, §2

H358 cells = test: H358 tumor bearing mice, single agents and combination
Protocol: as §1, §2

H2122 cells = test: H2122 tumor bearing mice, single agents and combination; settings: for tumor growth inhibition: Day 29, Compound 478 100 mg/kg or RMC-4550 30 mg/kg p.o. daily; for Average Tumor Volume: Compound 478 100 mg/kg, RMC-4550 30 mg/kg
Protocol: as §1
Similarly, 25 nude/nude mice were inoculated in the right hind limb with 5×10^6 H2122 cells.

[1] = Study Day 0, p.o. daily, 5 mice
[2] = Study Day 0, p.o. daily, Compound 478 100 mg/kg, RMC-4550 30 mg/kg, 5 mice
[3] = Study Day 4, p.o. daily, Compound 478 100 mg/kg, RMC-4550 30 mg/kg
[4] = Study Day 6, p.o. daily, Compound 478 100 mg/kg, RMC-4550 30 mg/kg
[5] = Study Day 8, p.o. daily, Compound 478 100 mg/kg, RMC-4550 30 mg/kg
[6] = Study Day 12, p.o. daily, Compound 478 100 mg/kg, RMC-4550 30 mg/kg
[7] = Study Day 15, p.o. daily, Compound 478 100 mg/kg, RMC-4550 30 mg/kg
[8] = Study Day 18, p.o. daily, Compound 478 100 mg/kg, RMC-4550 30 mg/kg
[9] = Study Day 20, p.o. daily, Compound 478 100 mg/kg, RMC-4550 30 mg/kg
[10] = Study Day 22, p.o. daily, Compound 478 100 mg/kg, RMC-4550 30 mg/kg, RMC-4550 single agent: dosing was stopped after Day 22

## Cc1nc(N2CCC3(CC2)CO[C@@H](C)[C@H]3N)c(CO)nc1-c1cccc(Cl)c1Cl [RMC-4550]
SW1573 cells
  tumor growth inhibition: 68%
SW1573 cells; [1]
  Average Tumor Volume: 336 mm^3
SW1573 cells; Study Day 2, p.o. daily
  Average Tumor Volume: 280 mm^3
SW1573 cells; Study Day 4, p.o. daily
  Average Tumor Volume: 286 mm^3
SW1573 cells; Study Day 7, p.o. daily
  Average Tumor Volume: 336 mm^3
SW1573 cells; Study Day 9, p.o. daily
  Average Tumor Volume: 305 mm^3
SW1573 cells; Study Day 11, p.o. daily
  Average Tumor Volume: 326 mm^3
SW1573 cells; Study Day 14, p.o. daily
  Average Tumor Volume: 418 mm^3
SW1573 cells; Study Day 16, p.o. daily
  Average Tumor Volume: 421 mm^3
SW1573 cells; Study Day 18, p.o. daily
  Average Tumor Volume: 375 mm^3
SW1573 cells; Study Day 21, p.o. daily
  Average Tumor Volume: 392 mm^3
SW1573 cells; Study Day 22, p.o. daily
  Average Tumor Volume: 510 mm^3
KYSE410 cells
  tumor growth inhibition: 90%
KYSE410 cells; [1]
  Average Tumor Volume: 314 mm^3
KYSE410 cells; Study Day 2, p.o. daily
  Average Tumor Volume: 311 mm^3
KYSE410 cells; Study Day 4, p.o. daily
  Average Tumor Volume: 316 mm^3
KYSE410 cells; Study Day 7, p.o. daily
  Average Tumor Volume: 299 mm^3
KYSE410 cells; Study Day 9, p.o. daily
  Average Tumor Volume: 316 mm^3
KYSE410 cells; Study Day 11, p.o. daily
  Average Tumor Volume: 309 mm^3
KYSE410 cells; Study Day 14, p.o. daily
  Average Tumor Volume: 309 mm^3
KYSE410 cells; Study Day 18, p.o. daily
  Average Tumor Volume: 303 mm^3
KYSE410 cells; Study Day 21, p.o. daily
  Average Tumor Volume: 372 mm^3
KYSE410 cells; Study Day 22, p.o. daily
  Average Tumor Volume: 377 mm^3
H358 cells; Day 22, RMC-4550 30 mg/kg p.o. daily
  tumor growth inhibition: 22%
H358 cells; [2]
  Average Tumor Volume: 333 mm^3
H358 cells; [3]
  Average Tumor Volume: 336 mm^3
H358 cells; [4]
  Average Tumor Volume: 343 mm^3
H358 cells; [5]
  Average Tumor Volume: 372 mm^3
H358 cells; [6]
  Average Tumor Volume: 388 mm^3
H358 cells; [7]
  Average Tumor Volume: 399 mm^3
H358 cells; [8]
  Average Tumor Volume: 422 mm^3
H358 cells; [9]
  Average Tumor Volume: 454 mm^3
H358 cells; [10]
  Average Tumor Volume: 492‡ mm^3
H2122 cells
  tumor growth inhibition: 47%
H2122 cells; [1]
  Average Tumor Volume: 350 mm^3
H2122 cells; Study Day 4, p.o. daily
  Average Tumor Volume: 515 mm^3
H2122 cells; Study Day 6, p.o. daily
  Average Tumor Volume: 578 mm^3
H2122 cells; Study Day 8, p.o. daily
  Average Tumor Volume: 614 mm^3
H2122 cells; Study Day 11, p.o. daily
  Average Tumor Volume: 683 mm^3
H2122 cells; Study Day 13, p.o. daily
  Average Tumor Volume: 750 mm^3
H2122 cells; Study Day 15, p.o. daily
  Average Tumor Volume: 856 mm^3
H2122 cells; Study Day 18, p.o. daily
  Average Tumor Volume: 880 mm^3
H2122 cells; Study Day 21, p.o. daily
  Average Tumor Volume: 916 mm^3
H2122 cells; Study Day 24, p.o. daily
  Average Tumor Volume: 1026 mm^3
H2122 cells; Study Day 27, p.o. daily
  Average Tumor Volume: 1137 mm^3
H2122 cells; Study Day 29, p.o. daily
  Average Tumor Volume: 1166 mm^3

## C=C(F)C(=O)N1CCN(c2nc(OC[C@@H]3CCCN3C)nc3c2CCN(c2cccc4cccc(Cl)c24)C3)C[C@@H]1CC#N [Compound 478]
SW1573 cells
  tumor growth inhibition: 81%
SW1573 cells; [1]
  Average Tumor Volume: 335 mm^3
SW1573 cells; Study Day 2, p.o. daily
  Average Tumor Volume: 281 mm^3
SW1573 cells; Study Day 4, p.o. daily
  Average Tumor Volume: 318 mm^3
SW1573 cells; Study Day 9, p.o. daily
  Average Tumor Volume: 336 mm^3
SW1573 cells; Study Day 14, p.o. daily
  Average Tumor Volume: 363 mm^3
SW1573 cells; Study Day 21, p.o. daily
  Average Tumor Volume: 419 mm^3
SW1573 cells; Study Day 22, p.o. daily
  Average Tumor Volume: 433 mm^3
KYSE410 cells
  tumor growth inhibition: 93%
KYSE410 cells; [1]
  Average Tumor Volume: 312 mm^3
KYSE410 cells; Study Day 2, p.o. daily
  Average Tumor Volume: 320 mm^3
KYSE410 cells; Study Day 4, p.o. daily
  Average Tumor Volume: 302 mm^3
KYSE410 cells; Study Day 7, p.o. daily
  Average Tumor Volume: 281 mm^3
KYSE410 cells; Study Day 9, p.o. daily
  Average Tumor Volume: 265 mm^3
KYSE410 cells; Study Day 11, p.o. daily
  Average Tumor Volume: 277 mm^3
KYSE410 cells; Study Day 14, p.o. daily
  Average Tumor Volume: 340 mm^3
KYSE410 cells; Study Day 18, p.o. daily
  Average Tumor Volume: 349 mm^3
KYSE410 cells; Study Day 21, p.o. daily
  Average Tumor Volume: 384 mm^3
KYSE410 cells; Study Day 22, p.o. daily
  Average Tumor Volume: 359 mm^3
H358 cells; Day 22, Compound 478 100 mg/kg, alone or with RMC-4550 30 mg/kg, p.o. daily
  tumor regression: 68%
H358 cells; [2]
  Average Tumor Volume: 335 mm^3
H358 cells; [3]
  Average Tumor Volume: 277 mm^3
H358 cells; [4]
  Average Tumor Volume: 244 mm^3
H358 cells; [5]
  Average Tumor Volume: 200 mm^3
H358 cells; [6]
  Average Tumor Volume: 156 mm^3
H358 cells; [7]
  Average Tumor Volume: 133 mm^3
H358 cells; [8]
  Average Tumor Volume: 120 mm^3
H358 cells; [9]
  Average Tumor Volume: 113 mm^3
H358 cells; [10]
  Average Tumor Volume: 109 mm^3
H358 cells; Study Day 25, p.o. daily, Compound 478 100 mg/kg, RMC-4550 30 mg/kg
  Average Tumor Volume: 90 mm^3
H358 cells; Study Day 27, p.o. daily, Compound 478 100 mg/kg, RMC-4550 30 mg/kg
  Average Tumor Volume: 92 mm^3
H358 cells; Study Day 29, Compound 478 100 mg/kg, RMC-4550 30 mg/kg p.o.
  Average Tumor Volume: 81 mm^3
H358 cells; Study Day 32, Compound 478 100 mg/kg, RMC-4550 30 mg/kg p.o.
  Average Tumor Volume: 82 mm^3
H358 cells; Study Day 34, Compound 478 100 mg/kg, RMC-4550 30 mg/kg p.o.
  Average Tumor Volume: 84 mm^3
H358 cells; Study Day 36, Compound 478 100 mg/kg, RMC-4550 30 mg/kg p.o.
  Average Tumor Volume: 81 mm^3
H358 cells; Study Day 39, Compound 478 100 mg/kg, RMC-4550 30 mg/kg p.o.
  Average Tumor Volume: 73 mm^3
H358 cells; Study Day 41, Compound 478 100 mg/kg, RMC-4550 30 mg/kg p.o.
  Average Tumor Volume: 58 mm^3
H2122 cells
  tumor growth inhibition: 93%
H2122 cells; Study Day 11, p.o. daily
  Average Tumor Volume: 382 mm^3
H2122 cells; Study Day 21, p.o. daily
  Average Tumor Volume: 430 mm^3
